Assay results from publication PMC2933030 (Biochemical Journal, 2010).

How the values were obtained:
[1] = tested on: 4xUb-Luc reporter in MDA-MB-231 cells; test: 4xUb-Luc reporter accumulation assay; type: cell-based; details: for MDA231 4xUb-Luc Maximal induction: 8 h with compound, over DMSO control
[2] = tested on: bulk protein turnover in HCT116 cells; test: Bulk protein turnover assay; type: cell-based
[3] = tested on: β5 site of the proteasome; details: cited from earlier work
[4] = target: human erythrocyte 20S β1c (caspase-like) site, constitutive proteasome (Homo sapiens, UniProt P28072+Q99436); test: Purified human 20S-PA28 peptidase assay, β1c site; type: biochemical
[5] = target: human peripheral blood monocyte 20S β1i site, immunoproteasome (Homo sapiens, UniProt P28065+P40306); test: Purified human 20S-PA28 peptidase assay, β1i site; type: biochemical
[6] = target: human erythrocyte 20S β2c (trypsin-like) site, constitutive proteasome (Homo sapiens, UniProt P49720+Q99436); test: Purified human 20S-PA28 peptidase assay, β2c site; type: biochemical
[7] = target: human peripheral blood monocyte 20S β2i site, immunoproteasome (Homo sapiens, UniProt P40306+P49720); test: Purified human 20S-PA28 peptidase assay, β2i site; type: biochemical
[8] = target: human peripheral blood monocyte 20S β5i site, immunoproteasome (Homo sapiens, UniProt P20618+P28062); test: Purified human 20S-PA28 peptidase assay, β5i site; type: biochemical
[9] = target: human erythrocyte 20S β5 site (Homo sapiens, UniProt P20618+P28074); test: Kinetic analysis of purified 20S inhibition; type: biochemical
MDA-MB-231 cells = test: ATPlite cell viability assay, MDA-MB-231; type: cell-based; details: Homo sapiens, MDA-MB-231, 72 h, read-out: Cell viability MDA-MB-231 LC50
[10] = tested on: MDA-MB-231, Calu6, H460, HCT116 and HT29 cells; test: ATPlite cell viability assays across cancer cell lines; type: cell-based; details: 72 h, read-out: LC50 values across a panel of five cancer cell lines
Cathepsin L = Cathepsin L (Homo sapiens, UniProt P07711); test: Protease selectivity assay, cathepsin L; type: biochemical
[11] = target: Coagulation Factor β-XIIa (Homo sapiens, UniProt P00748); test: Protease selectivity assay, coagulation Factor β-XIIa; type: biochemical
Thrombin = Thrombin (Homo sapiens, UniProt P00734); test: Protease selectivity assay, thrombin; type: biochemical
[12] = target: Tissue plasminogen activator (Homo sapiens, UniProt P00750); test: Protease selectivity assay, tissue plasminogen activator; type: biochemical
Trypsin = test: Protease selectivity assay, trypsin; type: biochemical, human

Sequence of Coagulation Factor β-XIIa (P00748 373-615 limits assumed, other chains not shown): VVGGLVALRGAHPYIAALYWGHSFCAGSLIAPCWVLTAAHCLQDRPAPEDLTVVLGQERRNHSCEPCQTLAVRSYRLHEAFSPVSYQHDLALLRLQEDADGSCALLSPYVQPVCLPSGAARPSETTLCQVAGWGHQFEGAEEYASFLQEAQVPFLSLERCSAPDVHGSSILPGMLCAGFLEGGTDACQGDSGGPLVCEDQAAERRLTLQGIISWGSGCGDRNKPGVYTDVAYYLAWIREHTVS
Sequence of Cathepsin L (P07711 114-333): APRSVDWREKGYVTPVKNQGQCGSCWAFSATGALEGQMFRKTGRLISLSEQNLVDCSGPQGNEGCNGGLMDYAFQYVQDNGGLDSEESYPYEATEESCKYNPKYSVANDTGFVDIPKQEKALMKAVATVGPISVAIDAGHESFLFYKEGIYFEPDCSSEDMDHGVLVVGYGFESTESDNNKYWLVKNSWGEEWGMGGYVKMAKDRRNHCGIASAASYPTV
Sequence of Tissue plasminogen activator (P00750 36-562): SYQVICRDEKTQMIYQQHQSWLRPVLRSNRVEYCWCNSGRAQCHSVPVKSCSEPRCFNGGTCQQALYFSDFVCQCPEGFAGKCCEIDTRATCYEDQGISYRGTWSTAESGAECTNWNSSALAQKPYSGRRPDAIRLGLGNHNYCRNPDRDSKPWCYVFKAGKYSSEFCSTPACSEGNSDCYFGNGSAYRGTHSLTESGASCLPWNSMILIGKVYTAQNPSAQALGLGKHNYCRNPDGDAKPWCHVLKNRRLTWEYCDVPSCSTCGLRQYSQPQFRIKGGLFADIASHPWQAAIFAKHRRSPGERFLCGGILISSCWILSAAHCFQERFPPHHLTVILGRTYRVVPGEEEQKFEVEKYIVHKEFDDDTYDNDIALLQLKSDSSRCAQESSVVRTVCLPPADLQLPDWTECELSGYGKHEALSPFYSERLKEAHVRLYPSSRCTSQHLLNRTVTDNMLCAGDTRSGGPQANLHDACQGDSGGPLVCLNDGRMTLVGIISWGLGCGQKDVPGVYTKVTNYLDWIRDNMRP

SMILES	MDA231 4xUb-Luc Maximal induction [1] [fold]	inhibition at 3 µM ([2]; Homo sapiens, HCT-116, read-out: inhibition of bulk protein turnover) [%]	t½ for dissociation from the β5 site [3]	IC50 [4] [nM]	IC50 [5] [nM]	IC50 [6] [nM]	IC50 [7] [nM]	IC50 [8] [nM]	Ki [9] [nM]	accumulation of the 4xUb-Luc reporter, up to ([1]; 8 h, highest effect observed)	CC50 (MDA-MB-231 cells) [nM]	CC50 [10] [nM]	Enzyme inhibition at 100 μM compound, Cathepsin L (Cathepsin L) [%]	Enzyme inhibition at 100 μM compound, Coagulation Factor β-XIIa [11] [%]	Enzyme inhibition at 100 μM compound, Thrombin (Thrombin) [%]	Enzyme inhibition at 100 μM compound, Tissue plasminogen activator [12] [%]	Enzyme inhibition at 100 μM compound, Trypsin (Trypsin) [%]	inhibition of bulk protein turnover ([2]; HCT116 cells, 3 μM compound)
CC(C)C[C@H](NC(=O)[C@H](Cc1ccccc1)NC(=O)c1cnccn1)B(O)O [Bortezomib]	340±12	~50	~ 110 min	–	–	–	–	–	–	–	–	–	–	–	–	–	–	–
Cc1ccc(CNC(=O)[C@H](CCc2ccccc2)NC(=O)[C@H](CCc2ccccc2)NC(=O)[C@H](CCc2ccccc2)NC(=O)c2cnc(C)cn2)cc1 [Compound 1, 5-methyl-N-((S)-1-((S)-1-((S)-1-(4-methylbenzylamino)-1-oxo-4-phenylbutan-2-ylamino)-1-oxo-4-phenylbutan-2-ylamino)-1-oxo-4-phenylbutan-2-yl)pyrazine-2-carboxamide]	52±16	–	–	28000	> 100000	57000	> 100000	8.9	0.5 ± 0.12	approx. 100 fold	150 ± 23	50 to 380	< 50	< 50	< 50	< 50	< 50	–
C[C@@]12OC(=O)[C@]1([C@@H](O)[C@@H]1C=CCCC1)NC(=O)[C@@H]2CCCl [ML858]	–	–	–	–	–	–	–	–	–	–	–	–	–	–	–	–	–	comparable
